Key:
MCF7 cells = assay: Anti-proliferation (viability) of MCF7 cells (Table 7, FIG. 2B); assay type: cell-based; details: Homo sapiens, MCF7, MCF7 cells, 3-6 days, 10-point serial dilution; read-out: GI IC50 in MCF-7
CDK4 = CDK4 (Homo sapiens, UniProt P11802+Q16531); assay: HiBiT detection of HiBiT-tagged CDK4 protein level in MCF7 cells, 16 hours (Table 8); assay type: cell-based; design: expressed in transfected cells; host or cells: MCF7; details: MCF7 cells stably expressing HiBiT tagged target proteins; for activity at 0.01 µM: 10 nM, read-out: % CDK4 Relative Level (10 nM); for activity at 0.1 µM: 100 nM, read-out: % CDK4 Relative Level (100 nM)
Sequence of CDK4 (P11802 whole entry): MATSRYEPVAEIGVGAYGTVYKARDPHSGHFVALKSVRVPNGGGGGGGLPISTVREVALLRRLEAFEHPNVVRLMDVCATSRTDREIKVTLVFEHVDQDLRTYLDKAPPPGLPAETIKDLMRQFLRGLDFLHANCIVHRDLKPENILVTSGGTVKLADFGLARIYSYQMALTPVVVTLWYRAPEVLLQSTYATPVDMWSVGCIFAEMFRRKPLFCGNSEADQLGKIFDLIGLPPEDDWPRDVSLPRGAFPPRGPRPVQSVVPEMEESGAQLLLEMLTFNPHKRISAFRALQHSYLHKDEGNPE
Sequence of CDK4 (P24385 whole entry partner): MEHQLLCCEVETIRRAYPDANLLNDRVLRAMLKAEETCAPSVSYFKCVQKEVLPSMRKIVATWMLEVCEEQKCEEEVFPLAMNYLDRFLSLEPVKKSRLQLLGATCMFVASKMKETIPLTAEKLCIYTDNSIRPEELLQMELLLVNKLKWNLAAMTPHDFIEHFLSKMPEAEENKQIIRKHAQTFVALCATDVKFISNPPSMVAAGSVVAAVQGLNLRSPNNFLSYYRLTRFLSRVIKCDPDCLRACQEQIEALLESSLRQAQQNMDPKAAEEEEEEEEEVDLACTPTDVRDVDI
Sequence of CDK4 (Q16531 2-1140 limits assumed): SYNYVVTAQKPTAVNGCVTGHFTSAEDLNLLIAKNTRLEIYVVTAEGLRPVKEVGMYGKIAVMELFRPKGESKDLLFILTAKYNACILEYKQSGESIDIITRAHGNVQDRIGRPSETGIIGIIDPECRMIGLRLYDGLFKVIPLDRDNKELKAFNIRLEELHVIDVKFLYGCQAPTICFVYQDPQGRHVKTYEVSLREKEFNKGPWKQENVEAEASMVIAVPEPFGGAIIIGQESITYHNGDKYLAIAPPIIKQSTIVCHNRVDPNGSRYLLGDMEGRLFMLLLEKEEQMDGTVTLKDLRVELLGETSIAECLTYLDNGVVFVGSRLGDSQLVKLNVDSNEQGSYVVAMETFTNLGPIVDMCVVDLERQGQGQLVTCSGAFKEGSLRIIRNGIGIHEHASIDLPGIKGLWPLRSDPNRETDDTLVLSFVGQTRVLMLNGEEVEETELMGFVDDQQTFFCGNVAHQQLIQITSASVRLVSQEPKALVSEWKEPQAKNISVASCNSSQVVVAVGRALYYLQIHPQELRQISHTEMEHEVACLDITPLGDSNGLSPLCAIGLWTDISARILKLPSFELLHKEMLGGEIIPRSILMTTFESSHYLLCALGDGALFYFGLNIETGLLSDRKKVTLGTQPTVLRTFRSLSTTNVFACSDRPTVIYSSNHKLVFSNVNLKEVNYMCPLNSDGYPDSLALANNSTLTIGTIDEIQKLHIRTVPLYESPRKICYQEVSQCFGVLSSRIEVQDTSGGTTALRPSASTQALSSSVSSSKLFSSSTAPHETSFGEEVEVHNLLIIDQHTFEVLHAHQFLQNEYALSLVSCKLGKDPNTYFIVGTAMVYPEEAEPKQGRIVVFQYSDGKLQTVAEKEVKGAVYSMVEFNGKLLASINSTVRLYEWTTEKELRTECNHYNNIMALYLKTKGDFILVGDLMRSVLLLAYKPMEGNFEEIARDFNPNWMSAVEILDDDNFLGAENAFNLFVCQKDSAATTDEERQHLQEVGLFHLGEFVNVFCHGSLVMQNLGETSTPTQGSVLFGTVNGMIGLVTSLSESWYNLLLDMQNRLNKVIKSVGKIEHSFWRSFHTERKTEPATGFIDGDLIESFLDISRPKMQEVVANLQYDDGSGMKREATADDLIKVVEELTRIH
Description: HiBiT detection system quantitatively measures total amounts of HiBiT-tagged proteins using a luminescent based method. MCF7 cells stably expressing HiBiT tagged target proteins were treated with heterobifunctional compounds at indicated concentrations for 16 hours, then lysed with Nano-Glo HiBiT Lytic detection reagents.

Structure (SMILES)	IC50 (MCF7 cells) [nM]	activity at 0.01 µM (CDK4) [%]	activity at 0.1 µM (CDK4) [%]
CCc1ccc(C(=O)Nc2ccc(N(C)C)nn2)c(NC23CC(C(=O)N4CCC(N5CCN(c6ccc(Nc7ncc8c(C)c(C(C)=O)c(=O)n(C9CCCC9)c8n7)nc6)CC5)C4)(C2)C3)n1 (stereo not drawn) [CPD-577, 2-((3-(3-(4-(6-((6-acetyl-8-cyclopentyl-5-methyl-7-oxo-7,8-dihydropyrido[2,3-d]pyrimidin-2-yl)amino)pyridin-3-yl)piperazin-1-yl)pyrrolidine-1-carbonyl)bicyclo[1.1.1]pentan-1-yl)amino)-N-(6-(dimethylamino)pyridazin-3-yl)-6-ethylnicotinamide]	< 50	> 85	55 to 85
[2H]C([2H])([2H])Nc1ccc(C(=O)Nc2cc(C)n(C)n2)c(NC2CC3(C2)CN(C(=O)CN2CCC4(CCN(c5ccc(Nc6ncc7c(C)c(C(C)=O)c(=O)n(C8CCCC8)c7n6)nc5)C4)C2)C3)n1 (stereo not drawn) [CPD-447, 2-((2-(2-(7-(6-((6-acetyl-8-cyclopentyl-5-methyl-7-oxo-7,8-dihydropyrido[2,3-d]pyrimidin-2-yl)amino)pyridin-3-yl)-2,7-diazaspiro[4.4]nonan-2-yl)acetyl)-2-azaspiro[3.3]heptan-6-yl)amino)-N-(1,5-dimethyl-1H-pyrazol-3-yl)-6-((methyl-d3)amino)nicotinamide]	< 50	55 to 85	55 to 85
CC(=O)c1c(C)c2cnc(Nc3ccc(N4CCN(C5CCN(C(=O)[C@H]6CC[C@H](Nc7nc(C)ccc7C(=O)Nc7ccc(N(C)C)nn7)CC6)C5)CC4)cn3)nc2n(C2CCCC2)c1=O (stereo partly drawn) [CPD-576, 2-((trans-4-(3-(4-(6-((6-acetyl-8-cyclopentyl-5-methyl-7-oxo-7,8-dihydropyrido[2,3-d]pyrimidin-2-yl)amino)pyridin-3-yl)piperazin-1-yl)pyrrolidine-1-carbonyl)cyclohexyl)amino)-N-(6-(dimethylamino)pyridazin-3-yl)-6-methylnicotinamide]	> 100	55 to 85	55 to 85
CC(=O)c1c(C)c2cnc(Nc3ccc(N4CCN(C5CCN(C(=O)C67CC(Nc8nc(C)ccc8C(=O)Nc8ccc(N(C)C)nn8)(C6)C7)C5)CC4)cn3)nc2n(C2CCCC2)c1=O (stereo not drawn) [CPD-590, 2-((3-(3-(4-(6-((6-acetyl-8-cyclopentyl-5-methyl-7-oxo-7,8-dihydropyrido[2,3-d]pyrimidin-2-yl)amino)pyridin-3-yl)piperazin-1-yl)pyrrolidine-1-carbonyl)bicyclo[1.1.1]pentan-1-yl)amino)-N-(6-(dimethylamino)pyridazin-3-yl)-6-methylnicotinamide]	< 50	55 to 85	55 to 85
CNc1ccc(C(=O)Nc2ccc(N(C)C)nn2)c(NCCCCC(=O)N2CCN(c3ccc(Nc4ncc5cc6n(c5n4)C4(CCCCC4)CNC6=O)nc3)CC2)n1 [CPD-634, N-(6-(dimethylamino)pyridazin-3-yl)-6-(methylamino)-2-((5-oxo-5-(4-(6-((6′-oxo-7′,8′-dihydro-6′H-spiro[cyclohexane-1,9′-pyrazino[1′,2′:1,5]pyrrolo[2,3-d]pyrimidin]-2′-yl)amino)pyridin-3-yl)piperazin-1-yl)pentyl)amino)nicotinamide]	> 100	55 to 85	55 to 85
CC(=O)c1c(C)c2cnc(Nc3ccc(N4CCN(C5CCN(C(=O)C6(O)CCC(Nc7nc(NC(C)C)ccc7C(=O)Nc7ccc(N(C)C)nn7)CC6)C5)CC4)cn3)nc2n(C2CCCC2)c1=O (stereo not drawn) [CPD-574, 2-((cis-4-(3-(4-(6-((6-acetyl-8-cyclopentyl-5-methyl-7-oxo-7,8-dihydropyrido[2,3-d]pyrimidin-2-yl)amino)pyridin-3-yl)piperazin-1-yl)pyrrolidine-1-carbonyl)-4-hydroxycyclohexyl)amino)-N-(6-(dimethylamino)pyridazin-3-yl)-6-(isopropylamino)nicotinamide]	< 50	> 85	55 to 85
CC(=O)c1c(C)c2cnc(Nc3ccc(N4CCC(N(C)CC(=O)N5CC6(CC(Nc7nc(NC(C)C)ccc7C(=O)Nc7ccc(N(C)C)nn7)C6)C5)CC4)cn3)nc2n(C2CCCC2)c1=O [CPD-425, 2-((2-(N-(1-(6-((6-acetyl-8-cyclopentyl-5-methyl-7-oxo-7,8-dihydropyrido[2,3-d]pyrimidin-2-yl)amino)pyridin-3-yl)piperidin-4-yl)-N-methylglycyl)-2-azaspiro[3.3]heptan-6-yl)amino)-N-(6-(dimethylamino)pyridazin-3-yl)-6-(isopropylamino)nicotinamide]	< 50	55 to 85	55 to 85
CNc1ccc(C(=O)Nc2ccc(N(C)C)nn2)c(NCCCCC(=O)N2CCN(c3ccc(Nc4ncc5cc(C(=O)N(C)C)n(C6CCCC6)c5n4)nc3)CC2)n1 [CPD-618, 7-cyclopentyl-2-((5-(4-(5-((3-((6-(dimethylamino)pyridazin-3-yl)carbamoyl)-6-(methylamino)pyridin-2-yl)amino)pentanoyl)piperazin-1-yl)pyridin-2-yl)amino)-N,N-dimethyl-7H-pyrrolo[2,3-d]pyrimidine-6-carboxamide]	> 100	> 85	55 to 85
CNc1ccc(C(=O)Nc2ccc(N(C)C)nn2)c(NCCCC(=O)N2CCN(Cc3ccc(Nc4ncc(F)c(-c5cc(F)c6nc(C)n(C(C)C)c6c5)n4)nc3)CC2)n1 [CPD-601, N-(6-(dimethylamino)pyridazin-3-yl)-2-((4-(4-((6-((5-fluoro-4-(4-fluoro-1-isopropyl-2-methyl-1H-benzo[d]imidazol-6-yl)pyrimidin-2-yl)amino)pyridin-3-yl)methyl)piperazin-1-yl)-4-oxobutyl)amino)-6-(methylamino)nicotinamide]	> 100	55 to 85	55 to 85
CC(=O)c1c(C)c2cnc(Nc3ccc(N4CCN(C5CCN(C(=O)C67CC(Nc8nc(NC(C)C)ccc8C(=O)Nc8cn(C)c(C9CC9)n8)(C6)C7)C5)CC4)cn3)nc2n(C2CCCC2)c1=O (stereo not drawn) [CPD-588, 2-((3-(3-(4-(6-((6-acetyl-8-cyclopentyl-5-methyl-7-oxo-7,8-dihydropyrido[2,3-d]pyrimidin-2-yl)amino)pyridin-3-yl)piperazin-1-yl)pyrrolidine-1-carbonyl)bicyclo[1.1.1]pentan-1-yl)amino)-N-(2-cyclopropyl-1-methyl-1H-imidazol-4-yl)-6-(isopropylamino)nicotinamide]	< 50	55 to 85	55 to 85
CNc1ccc(C(=O)Nc2ccc(N(C)C)nn2)c(NCCCCCNC(=O)CN2CCN(c3ccc(Nc4ncc5cc6n(c5n4)C4(CCCCC4)CNC6=O)nc3)CC2)n1 [CPD-643]	> 100	> 85	55 to 85
CC(=O)c1c(C)c2cnc(Nc3ccc(N4CCC5(CC4)CC5C(=O)NC4CC5(C4)CC(Nc4nc(NC(C)C)ccc4C(=O)Nc4ccc(N(C)C)nn4)C5)cn3)nc2n(C2CCCC2)c1=O (stereo not drawn) [CPD-414, 6-(6-((6-acetyl-8-cyclopentyl-5-methyl-7-oxo-7,8-dihydropyrido[2,3-d]pyrimidin-2-yl)amino)pyridin-3-yl)-N-(6-((3-((6-(dimethylamino)pyridazin-3-yl)carbamoyl)-6-(isopropylamino)pyridin-2-yl)amino)spiro[3.3]heptan-2-yl)-6-azaspiro[2.5]octane-1-carboxamide]	< 50	55 to 85	55 to 85
CC(=O)c1c(C)c2cnc(Nc3ccc(N4CCC5(CCN(CC(=O)N6CC7(CC(Nc8nc(NC(C)C)ccc8C(=O)Nc8ccc(N(C)C)nn8)C7)C6)C5)C4)cn3)nc2n(C2CCCC2)c1=O (stereo not drawn) [CPD-448, 2-((2-(2-(7-(6-((6-acetyl-8-cyclopentyl-5-methyl-7-oxo-7,8-dihydropyrido[2,3-d]pyrimidin-2-yl)amino)pyridin-3-yl)-2,7-diazaspiro[4.4]nonan-2-yl)acetyl)-2-azaspiro[3.3]heptan-6-yl)amino)-N-(6-(dimethylamino)pyridazin-3-yl)-6-(isopropylamino)nicotinamide]	< 50	55 to 85	55 to 85
CC(=O)c1c(C)c2cnc(Nc3ccc(N4CCN(C5CCN(C(=O)C67CC(Nc8nc(NC(C)C)ccc8C(=O)Nc8cc(C)on8)(C6)C7)C5)CC4)cn3)nc2n(C2CCCC2)c1=O (stereo not drawn) [CPD-591, 2-((3-(3-(4-(6-((6-acetyl-8-cyclopentyl-5-methyl-7-oxo-7,8-dihydropyrido[2,3-d]pyrimidin-2-yl)amino)pyridin-3-yl)piperazin-1-yl)pyrrolidine-1-carbonyl)bicyclo[1.1.1]pentan-1-yl)amino)-6-(isopropylamino)-N-(5-methylisoxazol-3-yl)nicotinamide]	< 50	55 to 85	55 to 85
CNc1ccc(C(=O)Nc2ccc(N(C)C)nn2)c(NCCCCCCNC(=O)CN2CCN(c3ccc(Nc4ncc5cc(C(=O)N(C)C)n(C6CCCC6)c5n4)nc3)CC2)n1 [CPD-628, 7-cyclopentyl-2-((5-(4-(2-((6-((3-((6-(dimethylamino)pyridazin-3-yl)carbamoyl)-6-(methylamino)pyridin-2-yl)amino)hexyl)amino)-2-oxoethyl)piperazin-1-yl)pyridin-2-yl)amino)-N,N-dimethyl-7H-pyrrolo[2,3-d]pyrimidine-6-carboxamide]	> 100	55 to 85	55 to 85
